{
  "source": "patent US9394264B2",
  "about": "(Receptos, Inc., priority 2009, dated 2016)",
  "type_in_all_cases": "cell-based",
  "key": {"S1P4": {"target": "T1, S1P4 (Homo sapiens, UniProt O95977)", "T1 construct": "Tango fusion (C); host or cells: U2OS (Tango, bla reporter)", "T1 sequence (O95977 1-384)": "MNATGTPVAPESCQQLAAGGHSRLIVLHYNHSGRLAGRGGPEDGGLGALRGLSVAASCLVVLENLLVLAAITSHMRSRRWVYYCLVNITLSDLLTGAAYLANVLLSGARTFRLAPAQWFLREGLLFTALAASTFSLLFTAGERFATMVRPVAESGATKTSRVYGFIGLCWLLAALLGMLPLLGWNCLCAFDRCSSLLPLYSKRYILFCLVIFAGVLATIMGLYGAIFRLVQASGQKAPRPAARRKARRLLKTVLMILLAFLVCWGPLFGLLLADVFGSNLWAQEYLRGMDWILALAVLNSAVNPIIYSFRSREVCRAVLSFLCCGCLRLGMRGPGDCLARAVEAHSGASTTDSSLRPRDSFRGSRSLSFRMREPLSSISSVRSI", "experiment": "Specificity over other S1P receptors: S1P4-bla TANGO U2OS", "conditions": "without Forskolin, read-out: S1P4 agonist value (EC50)", "protocol": "(§1) Cells were seeded into 384-well black wall/clear bottom plates at 10^4 cells/well/19.5 μl assay media (DMEM-phenol free, 0.5% charcoal/dextran stripped serum, 2 mM glutamine, 0.1 mM NEAA, 1 mM Na-Pyruvate, 25 mM Hepes) and incubated for 18 hrs at 37° C. in 5% CO2. Dose response curves (10-point) were generated in 10 mM Hepes, 0.1% Pluronic F127, in the presence of Forskolin. Cells were treated with 0.5 μl compound in the presence of 2 μM Forskolin for 4 hrs at 37° C. The FRET-based β-lactamase fluorescent substrate (LiveBLAzer™-FRET B/G Loading Kit CC4-AM; Invitrogen) was prepared according to manufacturer's directions, and incubated with cells for 2 hrs at room temperature. Plates were read at Ex:410/Em:458 and Ex:410/Em:522, and the response ratio determined. Data was analyzed by non-linear regression to determine the EC50 for inhibition of Forskolin induced cAMP.\n(§2) To assess compound specificity on other S1P receptors the following cell lines were used: S1P2 CRE-bla CHOK1, S1P3-Gα15 NFAT-bla HEK293T (Invitrogen), S1P4-bla TANGO U2OS (Invitrogen), S1P5-bla TANGO U2OS (Invitrogen). The same assay set up for S1P1 was used but without Forskolin. S1P4 and S1P5 assays were performed in FreeStyle Expression medium (Invitrogen). S1P5 cells were incubated for 48 hrs in prior to treatment with compound."}, "S1P5": {"target": "T2, S1P5 (Homo sapiens, UniProt Q9H228)", "T2 construct": "Tango fusion (C); host or cells: U2OS (Tango, bla reporter)", "T2 sequence (Q9H228 whole entry, the tested form may be a part)": "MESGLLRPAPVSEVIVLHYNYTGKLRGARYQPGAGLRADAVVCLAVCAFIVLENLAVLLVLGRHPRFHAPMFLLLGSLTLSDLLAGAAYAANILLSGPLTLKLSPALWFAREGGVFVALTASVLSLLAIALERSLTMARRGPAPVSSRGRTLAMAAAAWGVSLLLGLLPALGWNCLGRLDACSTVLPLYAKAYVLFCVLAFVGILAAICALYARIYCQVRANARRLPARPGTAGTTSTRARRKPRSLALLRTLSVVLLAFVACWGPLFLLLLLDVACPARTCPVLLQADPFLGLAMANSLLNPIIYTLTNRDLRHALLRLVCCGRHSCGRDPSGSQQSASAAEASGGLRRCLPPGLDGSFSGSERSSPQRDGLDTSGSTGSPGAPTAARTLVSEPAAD", "experiment": "Specificity over other S1P receptors: S1P5-bla TANGO U2OS", "conditions": "without Forskolin, read-out: S1P5 agonist value (EC50)", "protocol": "as §1, §2"}, "S1P2": {"target": "T3, S1P2 (Homo sapiens, UniProt O95136)", "T3 construct": "expressed in transfected cells; host or cells: CRE-bla CHOK1", "T3 sequence (O95136 whole entry, species assumed)": "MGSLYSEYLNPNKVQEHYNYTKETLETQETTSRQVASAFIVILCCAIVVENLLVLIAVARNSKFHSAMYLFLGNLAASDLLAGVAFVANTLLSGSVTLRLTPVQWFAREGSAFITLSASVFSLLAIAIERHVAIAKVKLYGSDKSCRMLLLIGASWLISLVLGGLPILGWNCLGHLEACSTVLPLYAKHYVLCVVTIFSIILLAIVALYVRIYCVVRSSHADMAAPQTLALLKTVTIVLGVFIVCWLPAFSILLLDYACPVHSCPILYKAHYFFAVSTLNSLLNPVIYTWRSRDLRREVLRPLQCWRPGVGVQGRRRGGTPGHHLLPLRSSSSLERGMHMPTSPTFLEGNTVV", "experiment": "Specificity over other S1P receptors: S1P2 CRE-bla CHOK1", "conditions": "S1P2 CRE-bla CHOK1, without Forskolin; read-out: S1P2 agonist value (EC50)", "protocol": "as §1, §2"}, "S1P3": {"target": "T4, S1P3 (Homo sapiens, UniProt Q99500)", "T4 construct": "host or cells: NFAT-bla HEK293T", "T4 sequence (Q99500 whole entry)": "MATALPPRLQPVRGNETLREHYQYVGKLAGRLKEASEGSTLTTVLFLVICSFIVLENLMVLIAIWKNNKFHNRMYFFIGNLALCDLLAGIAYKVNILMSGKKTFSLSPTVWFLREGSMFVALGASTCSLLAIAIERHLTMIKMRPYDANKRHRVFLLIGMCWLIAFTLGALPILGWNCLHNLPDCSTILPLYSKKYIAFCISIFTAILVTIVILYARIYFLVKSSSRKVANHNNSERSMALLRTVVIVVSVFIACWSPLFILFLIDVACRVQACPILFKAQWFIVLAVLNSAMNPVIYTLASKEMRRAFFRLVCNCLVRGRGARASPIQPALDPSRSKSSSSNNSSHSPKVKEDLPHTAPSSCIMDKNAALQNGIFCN", "experiment": "Specificity over other S1P receptors: S1P3-Gα15 NFAT-bla HEK293T", "conditions": "without Forskolin, read-out: S1P3 agonist value (EC50)", "protocol": "as §1, §2"}, "S1P1/EDG1": {"target": "S1P1/EDG1 (Homo sapiens, UniProt P21453)", "sequence (P21453 whole entry)": "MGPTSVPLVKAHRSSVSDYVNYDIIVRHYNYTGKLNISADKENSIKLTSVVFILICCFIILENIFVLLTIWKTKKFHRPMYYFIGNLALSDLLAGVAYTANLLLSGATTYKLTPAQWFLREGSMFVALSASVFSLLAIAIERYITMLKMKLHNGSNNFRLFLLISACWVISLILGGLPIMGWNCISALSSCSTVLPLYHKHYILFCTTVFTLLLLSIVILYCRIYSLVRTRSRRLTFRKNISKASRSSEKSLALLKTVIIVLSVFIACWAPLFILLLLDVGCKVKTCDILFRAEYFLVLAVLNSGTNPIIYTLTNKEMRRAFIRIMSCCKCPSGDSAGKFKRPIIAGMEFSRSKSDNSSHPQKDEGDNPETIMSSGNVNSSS", "experiment": "S1P1 CRE-bla CHOK1 reporter assay (inhibition of Forskolin induced cAMP)", "conditions": "S1P1 CRE-bla CHOK1 cells, 2 μM Forskolin", "source_text": "A mammalian expression plasmid containing S1P1/EDG1 cloned into pcDNA3.1 was purchased from Missouri S&T cDNA Resource Centre. The nucleotide and amino acid sequence of human S1P1/EDG1 are published in Hla and Maciag (J Biol Chem, 265(1990), 9308-9313). S1P1/pcDNA3.1 was transfected into the CRE-bla CHO K1 (Invitrogen) cell line, and stable single cell clones were selected using standard techniques. Expression of functional S1P1/EDG1 receptor was confirmed by cell surface FACS with a S1P1 antibody (R&D Systems, clone 218713) and S1P-mediated inhibition of Forskolin induced cAMP.\nas §1"}, "[1]": {"conditions": "read-out: S1P1 agonist value (EC50)"}, "[2]": {"conditions": "agonist activity range, read-out: S1P1 ACTIVITY"}},
  "note": "Read-outs that look alike come from different tables or passages of the source.",
  "data": [
    {"smiles": "CC(C)Oc1ccc(-c2nc(-c3cccc4c3CCC[C@@H]4NCCS(C)(=O)=O)no2)cc1C#N", "note": "[Compound 49, (S)-2-isopropoxy-5-(3-(5-((42-(methylsulfonyl)ethyl)amino)-5,6,7,8-tetrahydronaphthalen-1-yl)-1,2,4-oxadiazol-5-yl)benzonitrile]", "values": [
      {"measurement": "EC50", "setting": "S1P4", "result": "> 10000", "unit": "nM"},
      {"measurement": "EC50", "setting": "S1P5", "result": 94.6, "unit": "nM"},
      {"measurement": "EC50", "setting": "S1P2", "result": "> 10000", "unit": "nM"},
      {"measurement": "EC50", "setting": "S1P3", "result": "> 10000", "unit": "nM"},
      {"measurement": "EC50", "setting": "S1P1/EDG1; [1]", "result": 0.104, "unit": "nM"},
      {"measurement": "EC50", "setting": "S1P1/EDG1; [2]", "result": "0.05 to 0.5", "unit": "nM"}
    ]},
    {"smiles": "CC(C)Oc1ccc(-c2nc(-c3cccc4c3CCC[C@@H]4NS(C)(=O)=O)no2)cc1C#N", "note": "[Compound 29, (S)-N-(5-(5-(3-cyano-4-isopropoxyphenyl)-1,2,4-oxadiazol-3-yl)-1,2,3,4-tetrahydronaphthalen-1-yl)methanesulfonamide]", "values": [
      {"measurement": "EC50", "setting": "S1P4", "result": "> 10000", "unit": "nM"},
      {"measurement": "EC50", "setting": "S1P5", "result": 37.8, "unit": "nM"},
      {"measurement": "EC50", "setting": "S1P2", "result": "> 10000", "unit": "nM"},
      {"measurement": "EC50", "setting": "S1P3", "result": "> 10000", "unit": "nM"},
      {"measurement": "EC50", "setting": "S1P1/EDG1; [1]", "result": 0.065, "unit": "nM"},
      {"measurement": "EC50", "setting": "S1P1/EDG1; [2]", "result": "0.05 to 0.5", "unit": "nM"}
    ]},
    {"smiles": "CC(C)Oc1ccc(-c2nc(-c3cccc4c3CCC[C@H]4NC(=O)N3CC[C@H](O)C3)no2)cc1C#N", "note": "[Compound 13]", "values": [
      {"measurement": "EC50", "setting": "S1P4", "result": "> 10000", "unit": "nM"},
      {"measurement": "EC50", "setting": "S1P5", "result": 77, "unit": "nM"},
      {"measurement": "EC50", "setting": "S1P2", "result": "> 10000", "unit": "nM"},
      {"measurement": "EC50", "setting": "S1P3", "result": "> 10000", "unit": "nM"},
      {"measurement": "EC50", "setting": "S1P1/EDG1; [1]", "result": 0.1, "unit": "nM"},
      {"measurement": "EC50", "setting": "S1P1/EDG1; [2]", "result": "0.05 to 0.5", "unit": "nM"}
    ]},
    {"smiles": "COCCS(=O)(=O)N[C@H]1CCCc2c(-c3noc(-c4ccc(OC(C)C)c(C#N)c4)n3)cccc21", "note": "[Compound 33, (S)-N-(5-(5-(3-cyano-4-isopropoxyphenyl)-1,2,4-oxadiazol-3-yl)-1,2,3,4-tetrahydronaphthalen-1-yl)-2-methoxyethanesulfonamide]", "values": [
      {"measurement": "EC50", "setting": "S1P4", "result": 617, "unit": "nM"},
      {"measurement": "EC50", "setting": "S1P5", "result": 260, "unit": "nM"},
      {"measurement": "EC50", "setting": "S1P2", "result": "> 10000", "unit": "nM"},
      {"measurement": "EC50", "setting": "S1P3", "result": "> 10000", "unit": "nM"},
      {"measurement": "EC50", "setting": "S1P1/EDG1; [1]", "result": 0.192, "unit": "nM"},
      {"measurement": "EC50", "setting": "S1P1/EDG1; [2]", "result": "0.05 to 0.5", "unit": "nM"}
    ]},
    {"smiles": "CC(C)Oc1ccc(-c2nc(-c3cccc4c3CCC[C@H]4NS(=O)(=O)CCO)no2)cc1C#N", "note": "[Compound 37, (R)-N-(5-(5-(3-cyano-4-isopropoxyphenyl)-1,2,4-oxadiazol-3-yl)-1,2,3,4-tetrahydronaphthalen-1-yl)-2-hydroxyethanesulfonamide]", "values": [
      {"measurement": "EC50", "setting": "S1P4", "result": 879, "unit": "nM"},
      {"measurement": "EC50", "setting": "S1P5", "result": 3.5, "unit": "nM"},
      {"measurement": "EC50", "setting": "S1P2", "result": 1440, "unit": "nM"},
      {"measurement": "EC50", "setting": "S1P3", "result": "> 10000", "unit": "nM"},
      {"measurement": "EC50", "setting": "S1P1/EDG1; [1]", "result": 0.024, "unit": "nM"},
      {"measurement": "EC50", "setting": "S1P1/EDG1; [2]", "result": "< 0.05", "unit": "nM"}
    ]},
    {"smiles": "CC(C)Oc1ccc(-c2nc(-c3cccc4c3CCC[C@@H]4NC(=O)N3CC(O)C3)no2)cc1C#N", "note": "[Compound 8, (S)-N-(5-(5-(3-cyano-4-isopropoxyphenyl)-1,2,4-oxadiazol-3-yl)-1,2,3,4-tetrahydronaphthalen-1-yl)-3-hydroxyazetidine-1-carboxamide]", "values": [
      {"measurement": "EC50", "setting": "S1P4", "result": "> 10000", "unit": "nM"},
      {"measurement": "EC50", "setting": "S1P5", "result": 109, "unit": "nM"},
      {"measurement": "EC50", "setting": "S1P2", "result": "> 10000", "unit": "nM"},
      {"measurement": "EC50", "setting": "S1P3", "result": "> 10000", "unit": "nM"},
      {"measurement": "EC50", "setting": "S1P1/EDG1; [1]", "result": 0.143, "unit": "nM"},
      {"measurement": "EC50", "setting": "S1P1/EDG1; [2]", "result": "0.05 to 0.5", "unit": "nM"}
    ]}
  ]
}
